# Laboratory results from patent publication US12648928B2, “Intervention strategy for prevention or treatment of diabetes mellitus, autoimmune disease, inflammatory disease or cardiovascular disease” (ACADEMISCH MEDISCH CENTRUM, priority 2020, dated 2026).
# Assays:
# NF-κB = NF-κB reporter macrophage luciferase assay (RAW264.7); format: cell-based, murine
# Procedure: NF-κB signaling activation was assessed by luciferase activity assay. RAW264.7 cells stably transfected with the 3×-κB-luc plasmid (DNA construct containing three NF-κB sites from the Ig κ light chain promoter coupled to the gene encoding firefly luciferase) were grown in DMEM medium supplemented with 10% heat-inactivated fetal bovine serum, penicillin (100 U/ml), streptomycin (100 μg/ml), L-glutamine (2 mM). Cells were seeded in F-bottom 96-well […] metabolites at different concentrations (6-BT 0,1-100 μM, LysoPC(20:0) 1-10 μM, 16:0-18:2 PE 1-50 μM, MA-GPC 1-100 μM). Afterwards, cells were lysed with 25 μl/well 1×passive lysis buffer and firefly luciferase activity was measured by LUCIFERASE® Assay System (Promega, E1500) on a GLOMAX @-Multi Detection System (Promega).
# INS1E cells = test: In vitro stimulation of pancreatic beta cells: gene expression and insulin secretion; format: cell-based, rat
# Procedure: INS1E cells (rat pancreatic beta-cell line) were maintained in complete RPMI1640 supplemented with 5% Fetal Bovine Serum, 2 mM L-glutamine, 5 μM beta-mercaptoethanol, 1 mM sodium pyruvate, 10 mM HEPES, 100 units/ml of penicillin and 100 μg/ml streptomycin. INSIE cells were seeded in 48-well plates at a density of 1×10^5 cells per well and left resting for one day. Subsequently, medium was replaced with 0.5 ml/well of INS1E complete RPMI1640 medium containing vehicle or the metabolites: 6-BT (1/10/25 μM), LysoPC(20:0) (5/10/50 μM), or MA-GPC (10/50/100 μM). After 24 hours, cells and supernatant were harvested for further analysis (gene expression and insulin secretion, respectively) and stored at −80° C. Cells were lysed in Tripure isolation reagent (Roche) before storage.
# For glucose-stimulated insulin secretion (GSIS) assay, cells were preincubated in a Krebs-Ringer bicarbonate buffer (KRB) [115 mM NaCl, 5 mM KCl, 2.56 mM CaCl2), 1 mM MgCl2, 10 mM NaHCO3, 15 mM HEPES, and 0.3% of BSA (pH 7.4)] for 30 min at 37° C., following by stimulation with 1 mM glucose in KRB for 1 hour (0.5 ml/well) and stimulation with 22 mM glucose in KRB for another hour (0.5 ml/well) at 37° C. Supernatant was recovered after treatment with 1 mM glucose (Sigma-Aldrich) and 22 mM glucose and cells stored at −80° C. GSIS was performed on beta cells after treatment for 24-hour treatment with 10 μM 6-BT.
# Specific ELISAs (R&D Systems) were utilized to measure the concentration of TNFα, IFNβ, and IFNγ in cell supernatant of murine monocytes, macrophages ad T cells, respectively, according to the manufacturer's instructions. The concentration of insulin after 24-hour treatment with metabolites or after GSIS were determined using Rat insulin ELISA (Mercodia) according to the manufacturer's instructions. GSIS was calculated by subtracting the concentration of insulin at 1 mM glucose to the insulin rate at 22 mM glucose.
# Total RNA was extracted from Tripure isolation reagent cell lysates. RNA was converted to cDNA by with iScript kit (BioRad). Quantitative polymerase chain reaction (qPCR) was performed using SYBR Green-SensiMix (Bioline) on a CFX384 Touch Real-Time PCR Detection System (BioRad). The delta delta Ct method was used to calculate gene expression as fold-change compared to control (unstimulated conditions).
# Given the positive association between plasma 6-BT levels and C-peptide concentrations (found in the clinical study), it was then questioned whether 6-BT can exert a direct effect on beta cells. Indeed, it is seen here that 6-BT induces, in IS1E beta cells, the gene expression of the transcription factors PDX1 and MAFA, which are important for beta cell maturation and functionality.
# INS1E beta cells = test: Seahorse XF intracellular metabolism, INS1E beta cells; format: cell-based, rat
# From the text: Lastly, it was investigated whether 6-BT may influence the mitochondrial metabolism of beta cells, which rely on ATP and mitochondrial metabolite production for insulin exocytosis. […] Intracellular metabolism measured using a Seahorse XF Analyzer Uchimura T., The Innate Immune Sensor NLRC3 Acts as a Rheostat that Fine-Tunes T Cell Responses in Infection and Autoimmunity.
smiles,measurement,setting,value
"N[C@@H](Cc1c[nH]c2cc(Br)ccc12)C(=O)O [6-BT, 6-bromotryptophan]",NFκB pathway activation in macrophages,"NF-κB; RAW264.7 3x-κB-luc, LPS 10/100 ng/ml 2 hours, different doses (FIG. 7)",can inhibit NFκB pathway activation
same,transcriptional activity of the NFkB complex,"NF-κB; RAW264.7 NFkB luciferase reporter, overnight exposure 10-200 μM, 2 hours LPS (10 μg/ml) (FIG. 19)",inhibits the transcriptional activity of the NFkB complex in a dose-dependent manner
same,pancreatic beta-cell function,"INS1E cells; INS1e beta-cells treated for 24 hours, beta cell differentiation markers (FIGS. 12 and 13)",enhances pancreatic beta-cell function
same,gene expression of the transcription factor MAFA,INS1E cells; beta cells (FIG. 17),induces
same,gene expression of the transcription factor PDX1,INS1E cells; beta cells (FIG. 17),induces
same,insulin secretion at steady-state,"INS1E cells; beta cells, 24-hour treatment (FIG. 17)",promotes insulin secretion
same,glucose-stimulated insulin secretion,"INS1E cells; difference between insulin release at 1 mM and 22 mM glucose, 24-hour treatment with 10 μM",promotes insulin secretion
same,mitochondria metabolism at steady-state,INS1E beta cells; INS1E beta cells (FIG. 24),increased mitochondria metabolism
same,mitochondria metabolism under hyperglycemia,"INS1E beta cells; INS1E beta cells, 25 mM glucose (FIG. 24)",increased mitochondria metabolism
